In one experiment the target is T1, ETA Receptor (Rattus norvegicus, UniProt P26684).
T1 construct: endogenous in cells; host or cells: MMQ rat pituitary cells (membranes)
T1 sequence (P26684 21-426): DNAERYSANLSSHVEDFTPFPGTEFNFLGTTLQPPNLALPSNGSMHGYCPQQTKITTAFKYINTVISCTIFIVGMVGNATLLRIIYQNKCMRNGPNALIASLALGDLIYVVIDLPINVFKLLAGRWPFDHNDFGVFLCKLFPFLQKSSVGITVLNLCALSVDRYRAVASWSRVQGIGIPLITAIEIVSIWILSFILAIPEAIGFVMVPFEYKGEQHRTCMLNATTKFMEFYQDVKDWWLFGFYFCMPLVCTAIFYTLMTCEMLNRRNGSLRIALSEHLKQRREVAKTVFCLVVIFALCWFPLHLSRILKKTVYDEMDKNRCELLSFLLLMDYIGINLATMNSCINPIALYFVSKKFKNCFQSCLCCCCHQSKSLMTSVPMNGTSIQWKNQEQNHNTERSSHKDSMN
Description: [125I]ET-1 binding to membranes from MMQ cells (ETA receptor binding assay, Table 4). The following applies: test compound at 1 μM; 0.1 nM [125I]ET-1, MMQ cell membranes, 4 hours at 25° C.

In experiment [1] the test system is ET-1-induced phosphatidylinositol hydrolysis in MMQ cells. Description: Determination of ET-1-induced phosphatidylinositol (PI) hydrolysis in MMQ cells. Format: cell-based, rat. The following applies: 1 nM ET-1 challenge, read-out: IC50 (inhibition of ET-induced increase in PI turnover). The method, then: MMQ cells (0.4×10^6 cells/mL) were labeled with 10 μCi/mL of [^3H]myo-inositol in RPMI for 16 hours. The cells were washed with PBS, then incubated with Buffer A containing protease inhibitors and 10 mM LiCl for 60 minutes. The cells were then incubated with test compounds for 5 minutes, and then challenged with 1 nM ET-1. ET-1 challenge was terminated by the addition of 1.5 mL of 1:2 (v/v) chloroform-methanol. Total inositol phosphates were extracted after adding chloroform and water to give final proportions of 1:1:0.9 (v/v/v) chloroform-methanol-water as described by Berridge (Biochem. J. 206 587–595 (1982)). The upper aqueous phase (1 mL) was retained and a small portion (100 μL) was counted. The rest of the aqueous sample was analyzed by batch chromatography using anion-exchange resin AG1-X8 (Bio-Rad). […] The results of the above study clearly indicate that the compounds act as functional ET antagonists.

As for `COc1ccc(C2C(C(=O)O)C(c3ccc4c(c3)OCO4)CN2CC(=O)N(C)CC(C)C)cc1` (stereo not drawn) [Example 48, trans,trans-2-(4-Methoxyphenyl)-4-(1,3-benzodioxol-5-yl)-1-(N-methyl-N-isobutylaminocarbonylmethyl)-pyrrolidine-3-carboxylic acid], at ETA Receptor, the “% Inhibition of ETA at 1 μM” value stood at 96.3%. Moreover, the IC50 in experiment [1] was found to be 0.4 nM.

For `COc1ccc(C2C(C(=O)O)C(c3ccc4c(c3)OCO4)CN2CC(=O)NC2CCCC2)cc1` (stereo not drawn) [Example 19, trans,trans-2-(4-Methoxyphenyl)-4-(1,3-benzodioxol-5-yl)-1-(cyclopentylaminocarbonylmethyl)-pyrrolidine-3-carboxylic acid], the “% Inhibition of ETA at 1 μM” value at ETA Receptor was 90.3%. In addition, the IC50 in experiment [1] worked out at 24 nM.

In the case of `CCCCNC(=O)CN1CC(c2ccc3c(c2)OCO3)C(C(=O)O)C1c1ccc(OC)cc1` (stereo not drawn) [Example 15, trans,trans-2-(4-Methoxyphenyl)-4-(1,3-benzodioxol-5-yl)-1-(n-butylaminocarbonylmethyl)-pyrrolidine-3-carboxylic acid], the “% Inhibition of ETA at 1 μM” value on ETA Receptor was 84.8%. The IC50 in experiment [1] worked out at 10 nM.

With `CCCN(C)C(=O)CN1CC(c2ccc3c(c2)OCO3)C(C(=O)O)C1c1ccc(OC)cc1` (stereo not drawn) [Example 16, trans,trans-2-(4-Methoxyphenyl)-4-(1,3-benzodioxol-5-yl)-1-(N-(n-propyl)-N-methylaminocarbonylmethyl)-pyrrolidine-3-carboxylic acid], at ETA Receptor, the “% Inhibition of ETA at 1 μM” value is reported as 96.0%. Further, the IC50 in experiment [1] is 9 nM.

On to `CCCNC(=O)CN1CC(c2ccc3c(c2)OCO3)C(C(=O)O)C1c1ccc(OC)cc1` (stereo not drawn) [Example 1D, trans,trans-2-(4-Methoxyphenyl)-4-(1,3-benzodioxol-5-yl)-1-(propylaminocarbonylmethyl)-pyrrolidine-3-carboxylic acid], for which, on ETA Receptor, the “% Inhibition of ETA at 1 μM” value came to 96.4%. The IC50 in experiment [1] turned out to be 25 nM.

For `CCCN(CCC)C(=O)CN1CC(c2ccc3c(c2)OCO3)C(C(=O)O)C1c1ccc(OC)cc1` (stereo not drawn) [Example 47, trans,trans-2-(4-Methoxyphenyl)-4-(1,3-benzodioxol-5-yl)-1-(N,N-di(n-propyl)aminocarbonylmethyl)-pyrrolidine-3-carboxylic acid], the “% Inhibition of ETA at 1 μM” value at ETA Receptor is reported as 95.1%. The 50% inhibitory concentration (IC50) in experiment [1] worked out at 0.5 nM.

Consider `CCCCN(C)C(=O)CN1CC(c2ccc3c(c2)OCO3)C(C(=O)O)C1c1ccc(OC)cc1` (stereo not drawn) [Example 30, trans,trans-2-(4-Methoxyphenyl)-4-(1,3-benzodioxol-5-yl)-1-(N-methyl-N-butylaminocarbonylmethyl)-pyrrolidine-3-carboxylic acid], for which the “% Inhibition of ETA at 1 μM” value at ETA Receptor is 80.0%. Besides, the IC50 in experiment [1] amounted to 1 nM.

Values taken from US7208517B1, “Endothelin antagonists” (Abbott Labortories, priority 1994, dated 2007).
